Several values for one entry are separate records, joined by “and”; a condition that tells them apart may be missing. Equal values may be shown once. Read-outs that look alike come from different tables or passages of the source.
Key:
Assay type in all cases: cell-based
[1] = tested on: EOC 13.31 microglia cells; experiment: NO release inhibition in LPS/IFNγ stimulated microglia, concurrent treatment, Griess reaction at 24 hours (Example 6); conditions: for NO release, Avg / inhibition at 50 µM: 24 hours; for inhibition at 50 µM: Microglia
Procedure: The purpose of this experiment was to screen compounds 3, 4, 21, 26, 51, 52, 66, and 78 for their ability to inhibit Nitric oxide release from microglia. […] EOC 13.31 microglia cells were plated into 96 well plates for 24 hours. Confluent cells were treated with 50 μM of the bis- and tris-dihydroxyaryl compounds either with or without stimulation at 1 pg/ml LPS, and 1 ng/ml IFNγ. NO release was measured at 24 hours using the Griess reaction which is a spectrophotometric measure of NO release (reagents from Promega).

[2] = tested on: EOC 13.31 microglia cells; experiment: Inhibition of NO release from microglia following 24 hours pretreatment (Example 10); conditions: for inhibition at 50 µM: Microglia
Procedure: This experiment was designed to determine if pretreatment for 24 hours with bis- and tris-dihydroxyaryl compounds changes NO inhibition previously observed with concurrent exposure of bis- and tris-dihydroxyaryl compounds. […] This study seeks to determine if pretreatment with bis- and tris-dihydroxyaryl compounds increases NO release inhibition. EOC 13.31 microglia cells were plated at 1×10^6 cells/ml in 96 well plates. After 48 hours, confluent cells were exposed to 50 μM compound (stock 10 mM in DMSO) prepared in fresh cell culture media. After 24 hours, 10 μg/ml LPS and 10 ng/ml IFNγ was added to wells directly without a media change. Cells were incubated for a further 48 hours and nitric oxide release was measured using the Griess Reaction.

microglia = experiment: Ranking of NO release inhibition (Example 12); conditions: Microglia, ranking table
Description: The bis- and tris-dihydroxyaryl compounds were ranked in order of effectiveness for the inhibition of NO release as set out in Table 8.

Microglial cells = experiment: Dose response inhibition of NO release from microglia, 0.75-200 μM (Example 8)
Procedure: This experiment was designed to determine dose response inhibition of NO release from microglia by bis- and tris-dihydroxyaryl compounds when stimulated with LPS/IFNγ. […] This experiment is designed to determine a dose response for various bis- and tris-dihydroxyaryl compounds. Microglial cells were plated into 96 well plates at 1×10^5 cells/ml. […] The doses tested were: 0.75 μM, 1.56 μM, 3.125 μM, 6.25 μM, 12.5 μM, 25 μM, 50 μM, 100 μM and 200 μM. Nitric oxide release was measured after 48 hours using the Griess reaction.

[3] = Compound Only (without LPS/IFNγ), 50 μM
[4] = Compound + LPS/IFNγ, read-out: % inhibition of NO release
[5] = Table 2 summary, LPS/IFNγ, read-out: % Inhibition (summary of inhibition of NO release)
[6] = 50 uM pretreatment 24 hours, then LPS/IFNγ 48 hours, single replicates
[7] = 50 uM pretreatment 24 hours, then LPS/IFNγ 48 hours, read-out: Avg % Inhibition
[8] = 50 uM pretreatment 24 hours, then LPS/IFNγ 48 hours, single replicates, read-out: % inhibition
[9] = dose 0.75 μM, 48 hours, single replicates
[10] = dose 1.56 μM, 48 hours, single replicates
[11] = dose 3.125 μM, 48 hours, single replicates
[12] = dose 6.25 μM, 48 hours, single replicates
[13] = dose 12.5 μM, 48 hours, single replicates
[14] = dose 25 μM, 48 hours, single replicates
[15] = dose 50 μM, 48 hours, single replicates
[16] = dose 100 μM, 48 hours, single replicates
[17] = dose 200 μM, 48 hours, single replicates

`O=C(NCCc1ccc(O)c(O)c1)Nc1ccc(O)c(O)c1` [Compound 78, 1-(3,4-dihydroxyphenyl)-3-(3,4-dihydroxyphenethyl)urea] was tested, and the “NO release, Avg” value ([1]; Compound + LPS/IFNγ, 50 μM) was 18.7925 µM, the “NO release, Avg” value [1, 3] was 1.1667 µM and the inhibition at 50 µM [1, 4] was -0.9%. The inhibition at 50 µM [1, 5] was -0.9%, the “% inhibition” value [2, 6] was 57.93% and 69.00% and the inhibition at 50 µM [2, 7] was 65.5%. For the same compound, the inhibition at 50 µM [2, 8] was 69.6% and the inhibition at 50 µM (microglia) was -1%.

For `O=C(CCC(=O)Nc1ccc(O)c(O)c1)Nc1ccc(O)c(O)c1` [Compound 66, succinic acid bis(3,4-dihydroxyanilide)], the “NO release, Avg” value ([1]; Compound + LPS/IFNγ, 50 μM) was 15.4762 µM, the “NO release, Avg” value [1, 3] was 0.8333 µM and the inhibition at 50 µM [1, 4] was 16.9%. For the same compound, the inhibition at 50 µM [1, 5] was 16.9%, the “% inhibition” value [2, 6] was 59.20% and 65.21% and the inhibition at 50 µM [2, 7] was 64.3%. The inhibition at 50 µM [2, 8] was 68.4% and the inhibition at 50 µM (microglia) was 17%.

With `Oc1ccc(CCc2ccc(O)c(O)c2)cc1O` [Compound 4, 1,2-bis(3,4-dihydroxyphenyl)ethane] the “inhibition of NO release, in words” value ([1]; 50 μM, LPS/IFNγ stimulated microglial cells) was “very effective inhibitors of NO release”, the “NO release, Avg” value ([1]; Compound + LPS/IFNγ, 50 μM) was 1.0417 µM and the “NO release, Avg” value [1, 3] was 0.8660 µM. It also gave an inhibition at 50 µM [1, 4] of 94.4%, an inhibition at 50 µM [1, 5] of 94.4% and an inhibition at 0.75 µM (Microglial cells; Microglia, 48 h, dose 0.75 μM) of -11.1%. The inhibition at 1.56 µM (Microglial cells; Microglia, 48 h, dose 1.56 μM) was 2.52%, the inhibition at 3.125 µM (Microglial cells; Microglia, 48 h, dose 3.125 μM) was 6.14% and the inhibition at 6.25 µM (Microglial cells; Microglia, 48 h, dose 6.25 μM, 48 hours, read-out: Avg % Inhibition) was 36.2%. For the same compound, the inhibition at 6.25 µM (Microglial cells; Microglia, 48 h, dose 6.25 μM, 48 hours, single replicates, read-out: % inhibition) was 42.2%, the inhibition at 12.5 µM (Microglial cells; Microglia, 48 h, dose 12.5 μM, 48 hours, read-out: Avg % Inhibition) was 82.7% and the inhibition at 12.5 µM (Microglial cells; Microglia, 48 h, dose 12.5 μM, 48 hours, single replicates, read-out: % inhibition) was 85.1%. For the same compound, the inhibition at 25 µM (Microglial cells; Microglia, 48 h, dose 25 μM, 48 hours, read-out: Avg % Inhibition) was 86.2%, the inhibition at 25 µM (Microglial cells; Microglia, 48 h, dose 25 μM, 48 hours, single replicates, read-out: % inhibition) was 85.6% and the inhibition at 50 µM (Microglial cells; Microglia, 48 h, dose 50 μM, 48 hours, read-out: Avg % Inhibition) was 86.5%. It also gave an inhibition at 50 µM (Microglial cells; Microglia, 48 h, dose 50 μM, 48 hours, single replicates, read-out: % inhibition) of 87.2%, an inhibition at 100 µM (Microglial cells; Microglia, 48 h, dose 100 μM, 48 hours, read-out: Avg % Inhibition) of 82.2% and an inhibition at 100 µM (Microglial cells; Microglia, 48 h, dose 100 μM, 48 hours, single replicates, read-out: % inhibition) of 83%. The inhibition at 200 µM (Microglial cells; Microglia, 48 h, dose 200 μM, 48 hours, read-out: Avg % Inhibition) was 75%, the inhibition at 200 µM (Microglial cells; Microglia, 48 h, dose 200 μM, 48 hours, single replicates, read-out: % inhibition) was 77.4% and the “μM NO release Avg” value (Microglial cells; dose 0.75 μM, 48 hours) was 27.011 µM. For the same compound, the “% inhibition” value (Microglial cells; [9]) was −8.45% and −9.87% and −14.83%, the “OD values (printed under head μM NO release)” value (Microglial cells; [9]) was 0.229 and 0.22 and 0.222 and the “μM NO release” value (Microglial cells; [9]) was 27.931 µM and 26.379 µM and 26.724 µM. The “μM NO release Avg” value (Microglial cells; dose 1.56 μM, 48 hours) was 23.709 µM, the “% inhibition” value (Microglial cells; [10]) was 6.85% and 4.93% and −4.20% and the “OD values (printed under head μM NO release)” value (Microglial cells; [10]) was 0.214 and 0.197 and 0.2. For the same compound, the “μM NO release” value (Microglial cells; [10]) was 25.345 µM and 22.656 µM and 23.125 µM, the “μM NO release Avg” value (Microglial cells; dose 3.125 μM, 48 hours) was 22.829 µM and the “% inhibition” value (Microglial cells; [11]) was 12.63% and 10.71% and −4.91%. For the same compound, the “OD values (printed under head μM NO release)” value (Microglial cells; [11]) was 0.215 and 0.188 and 0.191, the “μM NO release” value (Microglial cells; [11]) was 25.517 µM and 21.250 µM and 21.719 µM and the “μM NO release Avg” value (Microglial cells; dose 6.25 μM, 48 hours) was 15.521 µM. For the same compound, the “% inhibition” value (Microglial cells; [12]) was 40.26% and 26.12%, the “OD values (printed under head μM NO release)” value (Microglial cells; [12]) was 0.167 and 0.142 and 0.145 and the “μM NO release” value (Microglial cells; [12]) was 17.969 µM and 14.063 µM and 14.531 µM. The μM NO release Avg (Microglial cells; dose 12.5 μM, 48 hours) was 4.21 µM, the “% inhibition” value (Microglial cells; [13]) was 84.07% and 78.93% and the “OD values (printed under head μM NO release)” value (Microglial cells; [13]) was 0.083 and 0.071 and 0.073. The “μM NO release” value (Microglial cells; [13]) was 5.125 µM and 3.625 µM and 3.875 µM, the “μM NO release Avg” value (Microglial cells; dose 25 μM, 48 hours) was 3.357 µM and the “% inhibition” value (Microglial cells; [14]) was 87.89%. The “OD values (printed under head μM NO release)” value (Microglial cells; [14]) was 0.071 and 0.07 and 0.064, the “μM NO release” value (Microglial cells; [14]) was 3.625 µM and 3.500 µM and 2.947 µM and the “μM NO release Avg” value (Microglial cells; dose 50 μM, 48 hours) was 3.292 µM. The “OD values (printed under head μM NO release)” value (Microglial cells; [15]) was 0.071 and 0.067 (2×), the “μM NO release” value (Microglial cells; [15]) was 3.625 μM and 3.125 μM (2×) and the “μM NO release Avg” value (Microglial cells; dose 100 μM, 48 hours) was 4.333 µM. The “% inhibition” value (Microglial cells; [16]) was 82.01% and 81.50%, the “OD values (printed under head μM NO release)” value (Microglial cells; [16]) was 0.078 and 0.075 and 0.077 and the “μM NO release” value (Microglial cells; [16]) was 4.500 µM and 4.125 µM and 4.375 µM. The “Avg % Inhibition” value (Microglial cells; dose 200 μM, 48 hours) was 75.332%, the “μM NO release Avg” value (Microglial cells; dose 200 μM, 48 hours) was 6.000 µM and the “% inhibition” value (Microglial cells; [17]) was 74.30%. The “OD values (printed under head μM NO release)” value (Microglial cells; [17]) was 0.092 (2×) and 0.086, the “μM NO release” value (Microglial cells; [17]) was 6.250 μM (2×) and 5.500 μM and the “inhibition of NO release, in words” value (Microglial cells; dose response 0.75-200 μM) was “effective inhibitors of NO release”. For the same compound, the “μM NO release” value [2, 6] was 0.000 µM, the inhibition at 50 µM [2, 7] was 100% and the inhibition at 50 µM [2, 8] was 100%. It also gave an inhibition at 50 µM ([2]; 50 μM pretreatment, read-out: inhibition of NO release following pretreatment) greater than 75% and an inhibition at 50 µM (microglia) of 94%.

— US20070208087A1, “Compounds, compositions and methods for the treatment of inflammatory diseases” (priority 2001, published 2007)
